The record followed here is patent US7122573B2, “Analogs of green tea polyphenols as chemotherapeutic and chemopreventive agents” (SRI International, priority 2002, dated 2006).

pIC50: −log10 of the molar value.

For orientation: pIC50 means the negative decadic logarithm of the IC50, by convention in mol/L. High values mean a small IC50, low ones a large IC50.

What all share (assay type): cell-based
Experiment [1] relates to human lung tumor cells (A427). As to the kind of experiment: Concurrent assay for cell survival. The settings on record: for surviving cells: highest concentration tested (25 μM). The procedure: (§1) An anchorage-independent growth inhibition assay was performed as described in Korytynski, et al. (1996) “The development of an anchorage-independence assay using human lung tumor cells to screen potential chemopreventive agents,” Anticancer Res. 16, 1091–1094; and Sharma, et al. (1997) “The anchorage-independent assay as a screening tool to identify potential chemopreventive agents,” Methods Cell Sci. 19, 9–12. The assay measures the inhibition of colony formation of human lung tumor cells (A427) cells grown in soft agar. In this assay, A427 cells were grown in the presence of the test agent, SR 13196, EGCG or 13-cis-RA Control samples were tested using an equivalent volume of DMSO alone. A concurrent assay for cell survival was also performed.

In the next experiment the test system is MCF-7 (ER+). As to the kind of experiment: Growth inhibition assay (MTT, 8 days) in MCF-7 breast cancer cells. The procedure:
(§2) Compounds of the invention were tested for their ability to inhibit growth in two breast cancer cell lines, MCF-7 (ER+) and MDA-MB-231 (ER−).
(§3) The growth inhibition assays were conducted using routine methods. Briefly, the cells were seeded in 24-well plates at a density of 2000 cells per well in 200 μL of […] growth medium. To each well was added 10 μL of DMSO containing the dissolved test compound; final DMSO concentration in each well was not more than 0.5%. Each test compound was assayed at concentrations of 0.4, 2, 10, and 50 μM. The plates were incubated for eight days, with the media and test solutions replaced every third day. On Day 8, the viable cells were measured by the MTT assay, as described in Mosmann et al. (1983), “Rapid Colorimetric Assay for Cellular Growth and Survival: Application to Proliferation and Cytotoxicity,” J. Immunol. Method. 65:55–63. The optical density at 575 nm of each test well was measured and compared to that for control wells, and the data used to calculate the percentage of growth inhibition at different concentrations. The IC50 value (the concentration of growth inhibitor that results in 50% growth inhibition of the cells in culture relative to control cells not exposed to any growth inhibitor) was determined by plotting dose-response curves.
(§4) The calculated IC50 values are set forth in Table 1, with the results representing the average of at least two experiments conducted for each compound at each of the four concentrations.

The test system of experiment [2] is human lung tumor cells (A427). As to the kind of experiment: Anchorage-independent growth inhibition assay (colony formation in soft agar). The procedure: as §1
The subject of the next experiment is MDA-MB-231 (ER−). As to the kind of experiment: Growth inhibition assay (MTT, 8 days) in MDA-MB-231 breast cancer cells. On the procedure:
as §2, §3, §4

Where [3] appears, read: Table 1, MTT on Day 8, average of at least two experiments.
Where [4] appears, read: Table 2, procedures repeated with additional compounds.
The mark [5] stands for this setting: Homo sapiens, MCF7, Table 2, procedures repeated with additional compounds.
Setting [6] is: Homo sapiens, MDA-MB-231, Table 2, procedures repeated with additional compounds.

`COc1cc([C@H]2Oc3cc(O)cc(O)c3C[C@H]2OC(=O)c2cc(C)c(O)c(C)c2)cc(OC)c1OC` (relative stereo) [SR 13196]: the “Surviving Fraction” value is reported as 0.71 in experiment [1] (1.56 μM); 0.41 in experiment [1] (3.12 μM); 0.17 in experiment [1] (6.25 μM); 0.12 in experiment [1] (12.5 μM); 0.11 in experiment [1] (25 μM). In experiment [1], this compound returned a surviving cells of 11%. The pIC50 in the experiment with MCF-7 (ER+) (Homo sapiens, MCF7, 192 h, Table 1, MTT on Day 8, average of at least two experiments) was 4.96; in the experiment on MDA-MB-231 (ER−) (Homo sapiens, MDA-MB-231, 192 h, Table 1, MTT on Day 8, average of at least two experiments) it was 4.90. The “Observed Colonies” value in experiment [2] (1.56 μM) was found to be 268; in experiment [2] (3.12 μM), 108; in experiment [2] (6.25 μM) it was 38; in experiment [2] (12.5 μM), 28; in experiment [2] (25 μM) it was 8.

In the case of `CC1=C(/C=C/C(C)=C/C=C/C(C)=C\C(=O)O)C(C)(C)CCC1` [13-cis-RA], the “Surviving Fraction” value in experiment [1] (1.56 μM) is 0.85; in experiment [1] (3.12 μM), 0.82; in experiment [1] (6.25 μM) it was 0.83; in experiment [1] (12.5 μM), 0.74; in experiment [1] (25 μM), 0.68. In addition, in experiment [1], the surviving cells was found to be 68%. Further, the “% Inhibition (colony formation)” value in experiment [2] (1.56 μM) is 8%; in experiment [2] (3.12 μM), 16%; in experiment [2] (6.25 μM) it was 28%; in experiment [2] (12.5 μM) it was 35%; in experiment [2] (25 μM) it was 43%. Also, the “Observed Colonies” value in experiment [2] (1.56 μM) was determined as 310; in experiment [2] (3.12 μM), 269; in experiment [2] (6.25 μM) it was 206; in experiment [2] (12.5 μM), 179; in experiment [2] (25 μM) it was 142.

`Oc1cc(O)c2c(c1)O[C@H](c1cc(O)c(O)c(O)c1)[C@H](O)C2` [EGC (2,3-cis), (−)-epigallocatechin]: the values for the pIC50 in the experiment on MCF-7 (ER+) (setting [3]) and in the experiment on MDA-MB-231 (ER−) (setting [3]) were 4.53 and 4.56, respectively.

Turning to `O=C(O[C@@H]1Cc2c(O)cc(O)cc2O[C@@H]1c1cc(O)c(O)c(O)c1)c1cc(O)c(O)c(O)c1` [EGCG, (−)-epigallocatechin-3-gallate], the “Surviving Fraction” value is on record as 0.99 in experiment [1] (1.56 μM); 0.98 in experiment [1] (3.12 μM); 0.97 in experiment [1] (6.25 μM); 0.85 in experiment [1] (12.5 μM); 0.39 in experiment [1] (25 μM). In experiment [1], this compound yielded a surviving cells of 39%. The pIC50 with MCF-7 (ER+) (setting [3]) is 5.09; in the experiment on MCF-7 (ER+) (setting [4]) it was 4.77; with MDA-MB-231 (ER−) (setting [3]), 4.92; in the experiment with MDA-MB-231 (ER−) (setting [4]), 5.24. In addition, the “% Inhibition (colony formation)” value in experiment [2] (1.56 μM) amounted to 0%; in experiment [2] (3.12 μM), 19%; in experiment [2] (6.25 μM), 25%; in experiment [2] (12.5 μM) it was 40%; in experiment [2] (25 μM), 50%. For the same compound, the “Observed Colonies” value amounted to 398 in experiment [2] (1.56 μM); 310 in experiment [2] (3.12 μM); 282 in experiment [2] (6.25 μM); 139 in experiment [2] (12.5 μM); 97 in experiment [2] (25 μM).

Turning to `COc1cc([C@H]2Oc3cc(O)cc(O)c3C[C@H]2OC(=O)c2cc(C)c(O)c(C)c2)cc(OC)c1OC` [SR 13197], the pIC50 is 3.91 in the experiment with MCF-7 (ER+) (setting [5]) and 4.26 in the experiment with MDA-MB-231 (ER−) (setting [6]).

For the compound `COc1cc(OC)c2c(c1)OC(c1cc(O)c(O)c(O)c1)[C@H](OC(=O)c1cc(O)c(O)c(O)c1)C2` (stereo partly drawn) [SR 13198, trans-5,7-DIMETHOXY-2-(3,4,5-TRIHYDROXY-PHENYL)-3,4-DIHYDRO-2H-CHROMAN-3-YL, 3,4,5-TRIHYDROXY-BENZOIC ACID ESTER], the pIC50 in the experiment on MCF-7 (ER+) (setting [5]) is 4.24; in the experiment on MDA-MB-231 (ER−) (setting [6]) it was 4.32.

Regarding `Cc1cc(C)c2c(c1)O[C@H](c1cc(O)c(O)c(O)c1)[C@H](OC(=O)c1cc(O)c(O)c(O)c1)C2` [SR 13912], the pIC50 with MCF-7 (ER+) (setting [5]) was 4.40; in the experiment on MDA-MB-231 (ER−) (setting [6]), 4.21.

As for `Cc1cc(C)c2c(c1)O[C@H](c1cc(O)c(O)c(O)c1)[C@H](OC(=O)c1cc(C)c(O)c(C)c1)C2` [SR 13913], the negative logarithm of the IC50 (pIC50) is 4.79 in the experiment with MCF-7 (ER+) (setting [5]) and 4.70 in the experiment on MDA-MB-231 (ER−) (setting [6]).

Turning to “trans-5,7-DIMETHYL-2-(3,4,5-TRIHYDROXY-PHENYL)-3,4-DIHYDRO-2H-CHROMAN-3-YL, 3,4,5,-TRIHYDROXY-BENZOIC ACID ESTER [SR 13911]”, the negative-log IC50 (pIC50) in the experiment on MCF-7 (ER+) (setting [4]) was 4.63; in the experiment on MDA-MB-231 (ER−) (setting [4]) it was 4.38.
